Measurements: patent US20040180322A1, “Regional intestinal permeability model” (priority 2000, published 2004)
Values belong to the compound of their own block, whether it stands above or below them. Where a SMILES comes first, the peptide text is derived from it. [ ]: non-standard residue; d: D form. Sar = CNCC(=O)O

What was measured:
[1] = test system: Caco-2; test: Caco-2 transepithelial transport with apical FaSSIF versus Mes (Experiment Three); type: in vitro ADME; conditions: for increase of A→B permeability with apical FaSSIF / increase of B→A permeability with apical FaSSIF: Caco-2, apical FaSSIF pH 6.5 compared with Mes pH 6.5
Experimental: Methods. […] Caco-2 transepithelial transport studies were performed using a standardized 24-well transwell format (20-24 day culture/passage 30-40). The transport experiments were performed using 0.3 mL apical solution either Ringers (pH 7.4), Mes (pH 6.5), or FaSSIF (pH 6.5, calcium free) and 1.2 mL basolateral solution (Ringer's buffer: pH 7.4, 290 mOsm/kg, 25 mM glucose). […] and B→A permeability was studied at 37° C., 50 opm, 95% humidity, and 5% CO2 using a 100 μM donor concentration with 1% DMSO. Monolayer integrity was evaluated by TEER measurements. Rabbit regional intestinal permeability studies were conducted using the Ussing side-by-side diffusion chamber, with volumes of 1.5 mL on each side. Intestinal segments (duodenum/jejunum/ileum/descending colon) were harvested from male New Zealand white rabbits (2.5-3.0 kg), stripped of the muscle layers and mounted in the chambers.

[2] = Caco-2 transepithelial transport at different apical pH, buffers and CO2 incubation (Experiment Two); type: in vitro ADME; conditions: human
Experimental: (§1) Methods. In vitro permeability of various transport marker compounds was investigated using different apical pH's (pH 7.4 and pH 6.5), different buffers (Ringers, Mes, and Hepes), and different incubation (with or without CO2) conditions. Caco-2 transepithelial transport studies were performed using a standardized 24-well transwell format (20-24 day culture/passage 30-40). The apical (A, 0.3 mL volume) and basolateral (B, 1.2 mL volume) reservoirs were filled with Ringer's buffer (pH 7.4, 290 mOsm/kg), containing 25 mM glucose. A→B and B→A permeability was studied at 37° C., 50 opm, 95% humidity, and 5% CO2 using a 100 μM donor concentration with 1% DMSO. Monolayer integrity was evaluated by transepithelial electrical resistance (TEER) measurements.

[3] = test system: Caco-2; test: as above; type: in vitro ADME; conditions: for increase of A to B Effective Permeability (Peff) on change of apical pH from 7.4 to 6.5 / decrease of A to B Effective Permeability (Peff) on change of apical pH from 7.4 to 6.5: Caco-2, apical pH 6.5 vs 7.4; for decrease of A to B Peff in the absence of CO2: Caco-2, pH 7.4 Ringers without CO2, pH shifted to 7.8-8.0
Experimental: as §1

[4] = test system: Caco-2; test: Inter-laboratory Caco-2 permeability values of marker compounds collected from references; type: in vitro ADME; conditions: for variability of in vitro permeability values in inter-laboratory Caco-2: values from 10 references with various culture and transport conditions
[5] = test system: Caco-2; conditions: cited from earlier work; for range of in vitro permeability values in inter-laboratory Caco-2: values from 10 references with various culture and transport conditions
[6] = Caco-2 monolayer A to B permeability of marker compounds, standardized conditions (Experiment One); conditions: human, Caco-2, pH 7.4

increase of A→B permeability with apical FaSSIF [1]: 3 fold
Compound: Nc1nc2c(ncn2COCCO)c(=O)[nH]1 [acyclovir]

efflux ratio at 90 min, 100 μM ([2]; Caco-2, apical pH 6.5): 12
efflux ratio at 90 min, 100 μM ([2]; Caco-2, apical pH 7.4): 8
increase of A→B permeability with apical FaSSIF [1]: 2 fold
Compound: COc1cc([C@@H]2c3cc4c(cc3[C@@H](O[C@@H]3O[C@@H]5CO[C@@H](C)O[C@H]5[C@H](O)[C@H]3O)[C@H]3COC(=O)[C@H]23)OCO4)cc(OC)c1O [etoposide]

increase of A to B Effective Permeability (Peff) on change of apical pH from 7.4 to 6.5 [3]: 6 ×
decrease of A to B Peff in the absence of CO2 [3]: 2 ×
decrease of A→B permeability with apical FaSSIF ([1]; Caco-2, FaSSIF in apical compartment): 2 fold
Compound: CN(CC(=O)O)C(=O)CN [glycylsarcosine] (H-Gly-[Sar]-OH)

increase of A to B Effective Permeability (Peff) on change of apical pH from 7.4 to 6.5 [3]: 3 ×
Compound: CC(C)Cc1ccc(C(C)C(=O)O)cc1 (stereo not drawn) [ibuprofen]

decrease of A to B Peff in the absence of CO2 [3]: 2 ×
Compound: CC(C(=O)O)c1cccc(C(=O)c2ccccc2)c1 (stereo not drawn) [ketoprofen]

variability of in vitro Apparent Permeability (Papp) values from published references ([4]; published references): 345 fold
variability of in vitro permeability values in inter-laboratory Caco-2 [4]: 9 fold
increase of A→B permeability with apical FaSSIF [1]: 3 fold
increase of B→A permeability with apical FaSSIF [1]: 11 fold
Papp A→B at 90 min, 100 μM [6]: 0.461 ×10⁻⁶ cm/s
Compound: OC[C@@H](O)[C@@H](O)[C@H](O)[C@H](O)CO [mannitol]
range of in vitro Apparent Permeability (Papp) values from published references ([5]; published references): 0.019-6.55 ×10^−6 cm/s
range of in vitro permeability values in inter-laboratory Caco-2 [5]: 0.38-3.23 ×10^−6 cm/s

variability of in vitro permeability values in inter-laboratory Caco-2 [4]: 7 fold
efflux ratio at 90 min, 100 μM ([2]; Caco-2, apical pH 6.5): > 4
decrease of A to B Effective Permeability (Peff) on change of apical pH from 7.4 to 6.5 [3]: 3 ×
Papp A→B at 90 min, 100 μM [6]: 28.7 ×10⁻⁶ cm/s
Compound: CC(C)NCC(O)COc1cccc2ccccc12 (stereo not drawn) [propranolol]
range of in vitro permeability values in inter-laboratory Caco-2 [5]: 14.8-110 ×10^−6 cm/s

increase of A→B permeability with apical FaSSIF [1]: 5 fold
Compound: NC(=O)c1ncn([C@@H]2O[C@H](CO)[C@@H](O)[C@H]2O)n1 [ribavirin]

efflux ratio at 90 min, 100 μM ([2]; Caco-2, apical pH 6.5): 32
efflux ratio at 90 min, 100 μM ([2]; Caco-2, apical pH 7.4): 4
decrease of A to B Effective Permeability (Peff) on change of apical pH from 7.4 to 6.5 [3]: 5 ×
Compound: CC[C@]1(O)C[C@@H]2CN(CCc3c([nH]c4ccccc34)[C@@](C(=O)OC)(c3cc4c(cc3OC)N(C)[C@H]3[C@@](O)(C(=O)OC)[C@H](OC(C)=O)[C@]5(CC)C=CCN6CC[C@]43[C@@H]65)C2)C1 [vinblastine]

increase of A→B permeability with apical FaSSIF [1]: 2 fold
increase of B→A permeability with apical FaSSIF [1]: 2 fold
Compound: Polyethylene Glycol [PEG 4000]
